Columns and labels:
HMEC cells = experiment: Proliferation of HMEC cells (GI50); assay type: cell-based; details: Homo sapiens, 120 h, 50 μM to 1 nM for 5 days
How it was run: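 Cells seeded at 1,000/well (10% confluence) and exposed 5 days (120 h) to compound from 1 nM up to 50–100 μM. Live cells counted by Hoechst 33342 staining under fluorescence microscopy; GI50 is concentration halving proliferation versus control, mean of two triplicate experiments.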

PP1α (PP1CA) = target: T1, PP1α (PP1CA) (Oryctolagus cuniculus, UniProt P62139); experiment: Protein phosphatase test (PP1 activity, DiFMUP fluorescent substrate); assay type: biochemical; details: PP1CA at 80 mU, fluorescent substrate (50 μM), molecules from 50 μM to 50 nM; read-out: PP1 Inhibition IC50
T1 construct: purchased New England Biolabs P0754
T1 sequence (P62139 whole entry): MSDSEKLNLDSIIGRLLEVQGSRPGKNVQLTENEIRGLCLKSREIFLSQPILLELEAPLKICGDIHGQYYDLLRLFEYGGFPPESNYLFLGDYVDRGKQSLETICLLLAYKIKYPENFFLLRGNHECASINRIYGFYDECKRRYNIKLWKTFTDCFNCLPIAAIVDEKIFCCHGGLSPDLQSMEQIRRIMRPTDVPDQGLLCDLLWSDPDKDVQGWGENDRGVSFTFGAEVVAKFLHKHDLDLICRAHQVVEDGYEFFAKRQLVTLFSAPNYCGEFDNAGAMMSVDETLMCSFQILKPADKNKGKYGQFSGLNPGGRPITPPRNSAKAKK
How it was run: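 PP1α (30 or 80 mU) in 100 mM Tris-HCl pH 7.5, 4 mM DTT, 0.2 mM EDTA, 0.5 mM MnCl2 was preincubated 15 min with compound (50 μM to 50 nM), then given 60 μM DiFMUP for 20 min at 37 °C. Phosphatase activity was read as fluorescence at 355-460 nm, three times in duplicate.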

HeLa cells = experiment: Phase contrast video microscopy of HeLa cells (mitosis duration, blebbing); assay type: cell-based, human; details: 0.5 μM
Method: The cells were filmed over 48 hours (image acquisition every 5 minutes) with a Neofluar 40× objective (Zeiss).
The values of FIG. 10A are averages±SEM of two experiments in which 50 mitotic cells were monitored.
For z-series video microscopy, HeLa cells were cultured in glass-bottomed dishes (Iwaki, Milian # BY-3910035). The system comprises: an AXIOVERT 200M inverted microscope (Zeiss®), a thermostated incubation chamber which maintains a temperature of 37° C. and a constant CO2 level of 5%, a motorized platform and a CoolSNAP HQ camera (Roper Scientifics®) coupled with the Metamorph acquisition and analysis system (Universal Imaging™ Corporation). The studies were carried out with ×20 or ×40 objectives (Neofluar Zeiss).
Initially, the acquisition fields were chosen and stored in the memory, then the acquisition parameters were defined, such as the duration of the experiment (48 hours), the interval between the image captures (5 minutes), or the number of sections at depth z (9 sections). At the end of 48 hours of recording, the acquisition batteries were reconstituted with the image at z having the same focus, using the Metamorph software.

[1] = In vivo toxicity in nude mice (weight, maximum tolerated oral dose); details: 200 mg/kg per os twice weekly over 2 months, 63 days
Method: FIG. 14 presents the change in the weight of nude mice over 63 days. The mice received an administration of compound 6 (200 mg/kg) per os twice weekly over 2 months.
Compound 6 was dissolved at 8 mg/ml in a 60 mg/ml aqueous solution of beta-cyclodextrin (vehicle).
For the in vivo experiments, molecule 6 (8 mg/ml) was prepared in 60 mg/ml of β-cyclodextrin (Sigma #4805) dissolved in water and vortexed.
All the animal experiments were carried out according to the recommendations of the local ethics commmittee. Nude mice (NCr-nu/nu females (Harlan Laboratories), were housed in a room with filtered air at 22° C., alternating 12 hours of day and 12 hours of night.
The mice received compound 6 per os in doses and at intervals described in the captions to the figures. The control mice received the vehicle alone (identical volume of beta-cyclodextrin at 60 mg/ml))

bovine brain tubulin = experiment: In vitro tubulin polymerization test (turbidimetry at 350 nm); assay type: biochemical; details: molecules at 50 μM, calculated at t=3000 s, DMSO control = 100%
How it was run: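 Bovine brain tubulin was assembled at 37 °C in BRB80 (80 mM K-PIPES pH 6.8, 1 mM MgCl2, 1 mM EGTA) with 1 mM GTP. The 50 μM tests used compounds at 50 μM, run in triplicate. Turbidity at 350 nm was read at t=3000 s and expressed relative to control taken as 100%.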

Q: What does the source list for `COc1ccc(-c2[nH]c(=O)c3cc(OC)ccc3c2[N+](=O)[O-])cc1` [Compound 6, 7-methoxy-3-(4-methoxyphenyl)-4-nitroisoquinoline-1(2H)-one]?
A: GI50 (HMEC cells): ≤ 100 nM; IC50 (PP1α (PP1CA)): ≤ 9 µM; membrane phenotype of HeLa cells (interphase and mitosis), phase contrast (HeLa cells; 3 hours): cortical blebbings; mitotic arrest of HeLa cells, phase contrast over 24 hours (HeLa cells; 24 hours): accumulation of rounded HeLa cells; mitotic cells remaining rounded (HeLa cells; HeLa cells in mitosis): 20%; mitotic cells showing intense blebbing (HeLa cells; HeLa cells in mitosis): 80%; duration of the mitosis of HeLa cells (HeLa cells; 1 hour under control conditions): 22 h; effect on the weight of nude mice [1]: no significant effect; Tubulin polymerization inhibition (bovine brain tubulin): + ((+) signifies that the molecule induces tubulin assembly inhibition in vitro comprised between 6 and 25% of the DMSO control.)

Source: patent US8883763B2 (Universite Joseph Fourier, priority 2010, dated 2014)
